Tests used:
[1] = tested on: porcine fibroblasts; assay: MTT cell attachment assay on sterilized scaffolds; details: incubated for 3 hours to attach, viable for 16 hours
Protocol: Then, a 100 μL aliquot of DMEM in which porcine fibroblasts were suspended was added to each scaffold disc such that a total of about 50,000 fibroblasts were seeded on the plates. Then, the plate was incubated at 37° C. in 5% CO2 atmosphere for 3 hours to allow the fibroblasts to attach to scaffold substrates. The scaffold substrates were carefully transferred to another well such that the cells attached to the scaffold would remain undisturbed. Then, the plate was incubated at 37° C. in 5% CO2 atmosphere for 12 hours. Then, 10 μL of MTT solution (3-[4,5-dimethylthiazol-2yl]-2,5-diphenyltetrazolium bromide; 5 mg/ml, Sigma Aldrich) dissolved in PBS was added to each well and incubated at 37° C. in 5% CO2 atmosphere for 5 hours. Then, the media were removed and 200 μL of dimethyl sulfoxide (DMSO) was added to each well to dissolve the formazan by pipetting. After incubation for 10 minutes, 100 μL of solutions from the respective substrate wells were pipetted into another 96-well plate. Finally, the absorbance of the samples was determined using a spectrophotometer with a test wavelength of 570 nm and a reference wavelength of 630 nm.

[2] = Glycosaminoglycan content, dimethyl methylene blue dye-binding assay (Blyscan kit); parameters: species or system porcine; details: for content of glycosaminoglycans, % of that in untreated and decellularized scaffolds: relative to untreated and decellularized scaffolds; for content of glycosaminoglycans, % of that in untreated scaffolds: relative to untreated scaffolds
Protocol: To evaluate the effects of the slightly acidic electrolyzed water of the present invention on the content of glycosaminoglycans, the content of glycosaminoglycans in decellularized liver (untreated scaffolds), scaffolds treated with PBS, and scaffolds treated with the slightly acidic electrolyzed water of the present invention were determined using a dimethyl methylene blue dye-binding assay kit (Blyscan kit; Biocolor Ltd) according to the manufacturer's instructions. First, 5 mg of lyophilized sample was homogenized and solubilized. A 100 μL aliquot from each sample lysate was added to 1 mL of dimethyl methylene blue solution and agitated on a shaker at 25° C. for 30 minutes. The resulting solutions were then centrifuged at 10,000×g for 10 minutes to collect the GAG dye complex, and the supernatants were discarded. The remaining pellet was suspended in 1 mL of the provided dissociation reagent, and the absorbance was measured at 655 nm. Chondroitin sulfate provided in the kit was used as a standard of glycosaminoglycans.

[3] = tested on: porcine fibroblasts; assay: Ki-67 immunostaining of fibroblasts in conditioned medium; type: cell-based; details: conditioned medium from treated scaffolds
Protocol: Conditioned and control media were prepared by the method described in Example 6-1, and about 5000 porcine fibroblasts were cultured on gelatin-coated 4-well plates for 24 hours. Then, the medium was switched to conditioned or control medium. The medium was changed every 24 hours. The proliferation potential of the soluble factors eluted from the scaffolds was checked after incubation for 24 hour and 48 hours. Cells were immunostained using anti-Ki-67 antibody (Abcam, Cambridge, UK). Texas Red goat anti-rabbit IgG (Invitrogen) was used as a secondary antibody. Nuclei were counterstained using a mounting medium containing DAPI. The percentage of Ki-67 positive cells was calculated as the ratio of average positive Ki-67 cells relative to 250 DAPI-stained cells.

[4] = tested on: DNA in porcine liver scaffolds; assay: DNA content of treated scaffolds (removal of immunogenic antigens); details: relative to untreated scaffolds
Protocol: First, lyophilized samples of native porcine liver slices, scaffolds decellularized by the method of Example 1, porcine liver scaffolds treated with 0.1% peracetic acid solution (PAA; Sigma-Aldrich, St Louis, Mo., USA), PBS, 70% ethanol (Daejung Chemicals and Metals, Seoul, Korea), and slightly acidic electrolyzed water were prepared. Then, DNA was extracted from the lyophilized samples using the DNeasy Blood and Tissue Kit (Qiagen, Hilden, Germany).

[5] = tested on: porcine skin fibroblasts; assay: Cytotoxicity test (MTT) with conditioned medium from sterilized scaffolds; type: cell-based; details: conditioned medium from treated scaffolds
Protocol: Conditioned cell culture media were prepared from scaffolds treated with the slightly acidic electrolyzed water of the present invention. In brief, serum-free DMEM cell culture medium was incubated overnight with each SAEW-treated scaffold at a concentration of 0.2 g/ml media at 37° C. in a shaker at 70 rpm/min. Cell culture media without scaffolds were prepared by the same method as above to provide unconditioned controls. After incubation, the scaffolds were removed and the medium was filtered through a 0.4 μm filter to prepare culture medium containing soluble factors released from extracellular matrix.
The medium in which fibroblasts were incubated was aspirated, followed by the addition of conditioned or unconditioned culture medium containing 10% FBS and 1% penicillin-streptomycin (Gibco, Grand Island, N.Y., USA) to the well with attached fibroblasts, and the plate was incubated 37° C. in 5% CO2 atmosphere for 24 hours and 48 hours (the culture medium was changed every 24 hours).

[6] = tested on: porcine liver scaffolds; assay: Sterilization effect on scaffolds according to culture time (DMEM + 10% FBS, Columbia blood agar)
Protocol: First, the porcine liver scaffolds prepared in Example 1 were divided into two groups: an experimental group in which the scaffolds were immersed in the slightly acidic electrolyzed water prepared in Example 2 to be sterilized for […], 60 minutes, 90 minutes, and 120 minutes, respectively; and a control group in which the scaffolds were treated with PBS, peracetic acid (PAA) solution (Sigma-Aldrich, St Louis, Mo., USA), and 70% ethanol solution (Daejung Chemicals and Metals, Seoul, Korea), instead of the slightly acidic electrolyzed water. The slightly acidic electrolyzed water was changed every 15 minutes to be the best fit for sterilization of the porcine liver scaffolds, and the sterilized porcine liver scaffolds were washed with PBS once.
The porcine liver scaffolds of the experimental group and the control group treated by the method described in the above section 3-1 were incubated in Dulbecco's Modified Eagle's Medium (DMEM; Invitrogen, Carlsbad, Calif., USA) supplemented with 10% fetal bovine serum (FBS, Hyclone, Logan, Utah, USA) at 37° C. and on Columbia blood agar medium (Fluka Chemie GmbH) for 96 hours and then checked periodically for signs of infection. In the event of infection, the discoloration and turbidity of medium increases, and the growth of cell colonies is observed on blood agar medium.
In Table 2, (−) represents that no symptoms of infection were observed; (+) represents that symptoms of infection were observed; (x) represents that symptoms of infection were observed before observation time; native liver, decellularized liver, and PBS-treated liver were used as positive controls; and medium without scaffolds was used as the negative control.

[7] = tested on: collagen in porcine liver scaffolds; assay: Collagen content, Sircol collagen dye-binding assay; details: relative to native liver
Protocol: To evaluate the effects of the slightly acidic electrolyzed water of the present invention on the content of collagen, the total collagen levels in native liver, decellularized scaffolds (untreated), scaffolds treated with PBS, PAA, or ethanol, and scaffolds treated with the slightly acidic electrolyzed water of the present invention were determined using a Sircol collagen dye-binding assay kit (Biocolor Ltd.) according to the manufacturer's instructions.
In more detail, lyophilized samples of native porcine liver slices, scaffolds decellularized by the method of Example 1, porcine liver scaffolds treated with PAA, PBS, ethanol, and slightly acidic electrolyzed water, respectively, were prepared. Then, total acid pepsin-soluble collagen was obtained after incubation in 0.5 M acetic acid containing 0.1 mg/ml pepsin. A 100 μL aliquot of acid neutralizing reagent was added to the acid-pepsin extract. Then, the extract was centrifuged after an overnight incubation at 4° C. Then, 1 mL Sircol dye reagent was added to the pellet and incubated at 25° C. for 30 minutes. After centrifugation, the pellet was washed with acid-salt wash reagent and suspended in 1 mL of alkaline reagent. Then, the absorbance was measured at 540 nm.

CC(=O)OO [PAA, peracetic acid]
seeded fibroblasts attached to scaffolds and remaining viable [1]: 71.50±1.95%
content of glycosaminoglycans, % of that in untreated and decellularized scaffolds [2]: 56±1.04%
content of glycosaminoglycans, % of that in untreated scaffolds [2]: 43±0.80%
percentage of Ki-67 positive cells compared to the control group [3]: no significant difference
efficiency for removing the DNA content [4]: 93.13±2.82%
proliferation rate of fibroblasts compared to unconditioned medium ([5]; incubation for 24 hours): 119.18±5.6%
proliferation rate of fibroblasts compared to unconditioned medium ([5]; incubation for 48 hours): 127.43±6.68%
symptoms of infection ([6]; Columbia blood agar, 6 hour): −
symptoms of infection ([6]; Columbia blood agar, 24 hour): −
symptoms of infection ([6]; Columbia blood agar, 36 hour): −
symptoms of infection ([6]; Columbia blood agar, 48 hour): −
symptoms of infection ([6]; Columbia blood agar, 60 hour): −
symptoms of infection ([6]; Columbia blood agar, 72 hour): −
symptoms of infection ([6]; Columbia blood agar, 96 hour): −
symptoms of infection ([6]; DMEM + 10% FBS, 6 hour): −
symptoms of infection ([6]; DMEM + 10% FBS, 24 hour): −
symptoms of infection ([6]; DMEM + 10% FBS, 36 hour): −
symptoms of infection ([6]; DMEM + 10% FBS, 48 hour): −
symptoms of infection ([6]; DMEM + 10% FBS, 60 hour): −
symptoms of infection ([6]; DMEM + 10% FBS, 72 hour): −
symptoms of infection ([6]; DMEM + 10% FBS, 96 hour): −

CCO [Ethanol, ethanol]
seeded fibroblasts attached to scaffolds and remaining viable [1]: 64.86±3.48%
content of collagen, % of that in native liver [7]: 87.54±4.07%
content of glycosaminoglycans, % of that in untreated and decellularized scaffolds [2]: 64.16±1.92%
content of glycosaminoglycans, % of that in untreated scaffolds [2]: 49.1±1.47%
percentage of Ki-67 positive cells compared to the control group [3]: no significant difference
proliferation rate of fibroblasts compared to unconditioned medium ([5]; incubation for 24 hours): 109.22±5.58%
proliferation rate of fibroblasts compared to unconditioned medium ([5]; incubation for 48 hours): 113.95±6.67%
symptoms of infection ([6]; Columbia blood agar, 6 hour): −
symptoms of infection ([6]; Columbia blood agar, 24 hour): −
symptoms of infection ([6]; Columbia blood agar, 36 hour): −
symptoms of infection ([6]; Columbia blood agar, 48 hour): −
symptoms of infection ([6]; Columbia blood agar, 60 hour): +
symptoms of infection ([6]; DMEM + 10% FBS, 6 hour): −
symptoms of infection ([6]; DMEM + 10% FBS, 24 hour): −
symptoms of infection ([6]; DMEM + 10% FBS, 36 hour): −
symptoms of infection ([6]; DMEM + 10% FBS, 48 hour): −
symptoms of infection ([6]; DMEM + 10% FBS, 60 hour): −
symptoms of infection ([6]; DMEM + 10% FBS, 72 hour): +

Reference: patent US9232804B2, “Compositions and methods for sterilizing bioscaffolds” (KNU University-Industry Cooperation Foundation, priority 2012, dated 2016)
